US9809573B2, “Substituted pyridine derivatives useful as GSK-3 inhibitors” (priority 2013, dated 2017)
pIC50: −log10 of the molar value. Where two headings read alike, the source gives them in different places.

Columns and labels:
GSK3β = GSK3β (Homo sapiens, UniProt P49841); test: GSK3β kinase assay (Caliper LabChip3000, fluoresceinated peptide substrate); assay type: biochemical; settings: for IC50: first value of the cell, 250 pM enzyme, 20 uM ATP, 20 hours at room temperature, read-out: GSK3β/α (nM): GSK3β IC50
Method in brief: (§1)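 RT, 20 h incubation; EDTA stop (35 mM). Microfluidic electrophoretic separation of product vs. substrate.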

GSK3α = GSK3α (Homo sapiens, UniProt P49840); test: biochemical; settings: second value of the cell; 250 pM enzyme, 20 uM ATP, 20 hours at room temperature; read-out: GSK3β/α (nM): GSK3α IC50
Method in brief: as §1

pTau = pTau assay (method not described); assay type: cell-based; settings: read-out: pTau

Chain of GSK3β (P49841 whole entry, species assumed): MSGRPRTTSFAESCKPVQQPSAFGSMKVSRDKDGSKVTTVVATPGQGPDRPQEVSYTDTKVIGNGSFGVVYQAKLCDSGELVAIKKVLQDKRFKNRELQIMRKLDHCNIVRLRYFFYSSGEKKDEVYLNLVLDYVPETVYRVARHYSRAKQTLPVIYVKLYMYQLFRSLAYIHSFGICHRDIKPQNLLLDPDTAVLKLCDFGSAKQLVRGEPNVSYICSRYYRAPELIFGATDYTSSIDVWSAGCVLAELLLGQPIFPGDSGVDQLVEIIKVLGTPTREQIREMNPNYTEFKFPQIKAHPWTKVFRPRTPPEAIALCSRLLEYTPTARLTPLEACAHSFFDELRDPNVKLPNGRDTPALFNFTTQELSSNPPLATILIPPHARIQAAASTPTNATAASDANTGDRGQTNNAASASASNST
Chain of GSK3α (P49840 whole entry, species assumed): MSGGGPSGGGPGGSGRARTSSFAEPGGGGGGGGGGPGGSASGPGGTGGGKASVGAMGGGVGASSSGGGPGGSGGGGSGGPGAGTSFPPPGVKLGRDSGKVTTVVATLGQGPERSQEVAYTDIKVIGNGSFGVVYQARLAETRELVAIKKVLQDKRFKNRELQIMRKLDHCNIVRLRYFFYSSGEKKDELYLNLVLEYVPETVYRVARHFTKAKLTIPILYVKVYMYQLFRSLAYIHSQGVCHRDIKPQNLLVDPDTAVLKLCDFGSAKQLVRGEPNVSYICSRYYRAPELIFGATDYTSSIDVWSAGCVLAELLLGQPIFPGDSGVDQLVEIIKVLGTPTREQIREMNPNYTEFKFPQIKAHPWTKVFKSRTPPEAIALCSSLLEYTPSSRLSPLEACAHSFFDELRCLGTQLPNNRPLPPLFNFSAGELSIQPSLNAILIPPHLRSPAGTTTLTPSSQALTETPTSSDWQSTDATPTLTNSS

SMILES | IC50 (GSK3β) [nM] | IC50 (GSK3α) [nM] | pIC50 (pTau) | pIC50 (GSK3β)
O=C(Nc1cncc(-c2cccc(N3CCOCC3)c2)c1)c1ccnc(NC(=O)C2CC2)c1 [Example 156, 2-(cyclopropanecarboxamido)-N-(5-(3-morpholinophenyl)pyridin-3-yl)isonicotinamide] | 11 | 3.6 | 6.38 | –
O=C(Nc1cncc(-c2cccc(OC(F)F)c2)c1)c1ccnc(NC(=O)C2CC2)c1 [Example 157, 2-(cyclopropanecarboxamido)-N-(5-(3-(difluoromethoxy)phenyl)pyridin-3-yl)isonicotinamide] | 7.9 | 3.3 | 6.17 | –
CCOc1cccc(-c2cncc(NC(=O)c3ccnc(NC(=O)C4CC4)c3)c2)c1Cl [Example 158, N-(5-(2-chloro-3-ethoxyphenyl)pyridin-3-yl)-2-(cyclopropanecarboxamido)isonicotinamide] | 7.7 | 2.5 | 6.37 | –
O=C(Nc1cncc(-c2cncc(Cl)c2)c1)c1ccnc(NC(=O)C2CC2)c1 [Example 160] | – | 1.6 | 6.82 | 8.41
O=C(Nc1cncc(-c2cncc(F)c2)c1)c1ccnc(NC(=O)C2CC2)c1 [Example 161, 2-(cyclopropanecarboxamido)-N-(5′-fluoro-[3,3′-bipyridin]-5-yl)isonicotinamide] | 1.7 | 0.6 | 6.76 | –
Cc1ccc(-c2cncc(NC(=O)c3ccnc(NC(=O)C4CC4)c3)c2)cn1 [Example 162, 2-(cyclopropanecarboxamido)-N-(6′-methyl-[3,3′-bipyridin]-5-yl)isonicotinamide] | – | 1.1 | 6.94 | 8.60
O=C(Nc1cncc(-c2ccc(F)nc2)c1)c1ccnc(NC(=O)C2CC2)c1 [Example 163, 2-(cyclopropanecarboxamido)-N-(6′-fluoro-[3,3′-bipyridin]-5-yl)isonicotinamide] | 6 | 1.7 | 6.89 | –
COc1cccc(-c2cncc(NC(=O)c3ccnc(NC(=O)C4CC4)c3)c2)n1 [Example 164, 2-(cyclopropanecarboxamido)-N-(6-methoxy-[2,3′-bipyridin]-5′-yl)isonicotinamide] | 6 | 1.4 | 6.57 | –
O=C(Nc1cncc(-c2cccc(F)n2)c1)c1ccnc(NC(=O)C2CC2)c1 [Example 165, 2-(cyclopropanecarboxamido)-N-(6-fluoro-[2,3′-bipyridin]-5′-yl)isonicotinamide] | 3.8 | 1.3 | 6.90 | –
O=C(Nc1cncc(-c2ccnc(F)c2F)c1)c1ccnc(NC(=O)C2CC2)c1 [Example 166, 2-(cyclopropanecarboxamido)-N-(2′,3′-difluoro-[3,4′-bipyridin]-5-yl)isonicotinamide] | 44 | 11 | 6.44 | –
O=C(Nc1cnccc1-c1cc(Br)cc(Br)c1)c1ccnc(NC(=O)C2CC2)c1 [Example 167, 2-(cyclopropanecarboxamido)-N-(4-(3,5-dibromophenyl)pyridin-3-yl)isonicotinamide] | 20 | 9.3 | 5.26 | –
O=C(Nc1cnccc1-c1ccc(Br)cc1)c1ccnc(NC(=O)C2CC2)c1 [Example 168, N-(4-(4-bromophenyl)pyridin-3-yl)-2-(cyclopropanecarboxamido)isonicotinamide] | 6.8 | 2.2 | 6.62 | –
O=C(Nc1cnccc1-c1ccc(I)cc1)c1ccnc(NC(=O)C2CC2)c1 [Example 169, 2-(cyclopropanecarboxamido)-N-(4-(4-iodophenyl)pyridin-3-yl)isonicotinamide] | 2.8 | 1.5 | 6.77 | –
O=C(Nc1cnccn1)c1ccnc(NC(=O)C2CC2)c1 [Example 170, 2-(Cyclopropanecarboxamido)-N-(pyrazin-2-yl)isonicotinamide] | 8.1 | 2.9 | 6.24 | –
CC(C)n1cc(NC(=O)c2ccnc(NC(=O)C3CC3)c2)cn1 [Example 171, 2-(cyclopropanecarboxamido)-N-(1-isopropyl-1H-pyrazol-4-yl)isonicotinamide] | 370 | 170 | 5.40 | –
O=C(Nc1cnn(CC(F)(F)F)c1)c1ccnc(NC(=O)C2CC2)c1 [Example 172, 2-(cyclopropanecarboxamido)-N-(1-(2,2,2-trifluoroethyl)-1H-pyrazol-4-yl)isonicotinamide] | 35 | 14 | 6.15 | –
O=C(Nc1cncs1)c1ccnc(NC(=O)C2CC2)c1 [Example 173, 2-(cyclopropanecarboxamido)-N-(thiazol-5-yl)isonicotinamide] | 18 | 14 | 5.60 | –
